Like-named read-outs stand apart in the source and are kept apart here. Peptide text beside a SMILES is read from it. * marks the point of attachment. Cbz = O=C(OCc1ccccc1)*
What was measured:
SARS-CoV-2 M^pro = SARS-CoV-2 M^pro (Severe acute respiratory syndrome coronavirus 2, UniProt P0DTD1); assay type: binding
[1] = test system: influenza virus A/California/07/2009 (H1N1); experiment: Influenza A virus plaque reduction assay; assay type: cell-based; conditions: read-out: A/California/07/2009 (H1N1) antiviral activity (EC50)
[2] = biological target: SARS-CoV-2 main protease (M^pro) (Severe acute respiratory syndrome coronavirus 2, UniProt P0DTD1); experiment: biochemical; conditions: for inhibition at 20 µM: read-out: inhibition against M^pro
EV-A71 2A protease = biological target: T1, EV-A71 2A protease (Human enterovirus 71, UniProt Q66478); experiment: biochemical
T1 sequence (Q66478 863-1012 limits assumed): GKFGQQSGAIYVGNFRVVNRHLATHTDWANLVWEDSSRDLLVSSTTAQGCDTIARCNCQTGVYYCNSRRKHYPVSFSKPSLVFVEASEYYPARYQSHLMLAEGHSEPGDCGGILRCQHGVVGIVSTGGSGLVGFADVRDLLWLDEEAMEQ

EV-A71 3C protease = EV-A71 3C protease (Human enterovirus 71, UniProt Q66478); experiment: biochemical
SARS-CoV 3CL^pro (M^pro) = conditions: read-out: IC50 against SARS-CoV 3CL^pro (M^pro); cited from earlier work
[3] = 8 µM protein, 4 mM DTT, ligand 12.5 µM (62: 25 µM), up to two ligands per dimer

EV-A71 3C protease, sequence (Q66478 1549-1731): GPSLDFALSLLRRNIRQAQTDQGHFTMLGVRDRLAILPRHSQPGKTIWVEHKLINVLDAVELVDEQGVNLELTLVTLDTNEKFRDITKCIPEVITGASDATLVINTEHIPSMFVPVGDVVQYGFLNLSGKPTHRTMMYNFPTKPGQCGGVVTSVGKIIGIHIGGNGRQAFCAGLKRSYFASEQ

For calpain inhibitor XII [compound 62], the “binding stoichiometry by native MS” value (SARS-CoV-2 M^pro; [3]) was “one drug per protomer” and the EC50 ([1]; plaque assay) was greater than 20 µM.
`CN(C)C(=O)COC(=O)Cc1ccc(OC(=O)c2ccc(NC(=N)N)cc2)cc1` [compound 39, camostat] showed an IC50 [2] greater than 20 µM.
For `CC(C)C[C@@H](C=O)NC(=O)[C@H](CC(C)C)NC(=O)[C@H](CC(C)C)NC(=O)OCc1ccccc1` [compound 43, MG-132] (Cbz-Leu-Leu-Leu-aldehyde), the inhibition at 20 µM [2] was greater than 60%, the IC50 (EV-A71 2A protease) was greater than 20 µM and the IC50 (EV-A71 3C protease) was greater than 20 µM.
For `CCOC(=O)/C=C/[C@H](C[C@@H]1CCNC1=O)NC(=O)[C@@H](CC(=O)[C@@H](NC(=O)c1cc(C)on1)C(C)C)Cc1ccc(F)cc1` [compound 65, rupintrivir], the “activity against EV-A71 2A protease” value (EV-A71 2A protease) is listed as “inactive”, the “activity against EV-A71 3C protease” value (EV-A71 3C protease) is listed as “potent inhibition” and the IC50 (SARS-CoV 3CL^pro (M^pro)) is listed as greater than 100 µM.
Work on `COc1ccc2c(O[C@@H]3C[C@H]4C(=O)N[C@]5(C(=O)NS(=O)(=O)C6CC6)C[C@H]5/C=C\CCCCN(C)C(=O)[C@@H]4C3)cc(-c3nc(C(C)C)cs3)nc2c1C` [compound 24, simeprevir] yielded an inhibition at 20 µM [2] greater than 60%.
With `CC(C)(C)NC(=O)N[C@H](C(=O)N1C[C@H]2[C@@H]([C@H]1C(=O)NC(CC1CCC1)C(=O)C(N)=O)C2(C)C)C(C)(C)C` (stereo partly shown) [compound 28, boceprevir] the inhibition at 20 µM [2] was greater than 60%, the IC50 (EV-A71 2A protease) was greater than 20 µM and the IC50 (EV-A71 3C protease) was greater than 20 µM. For the same molecule, the “binding stoichiometry by native MS” value (SARS-CoV-2 M^pro) was “one drug per protomer” and the EC50 [1] was greater than 20 µM.
`Cc1cccc(C)c1OCC(=O)N[C@@H](Cc1ccccc1)[C@@H](O)C[C@H](Cc1ccccc1)NC(=O)[C@H](C(C)C)N1CCCNC1=O` [compound 10, lopinavir] gave an IC50 [2] greater than 20 µM.
With GC-376 [compound 64] the “activity against EV-A71 2A protease” value (EV-A71 2A protease) was “inactive”, the “activity against EV-A71 3C protease” value (EV-A71 3C protease) was “potent inhibition” and the EC50 ([1]; plaque assay) was greater than 20 µM.
In the case of `CCCC[C@H](NC(=O)[C@@H]1[C@@H]2[C@H](CN1C(=O)[C@@H](NC(=O)NC1(CS(=O)(=O)C(C)(C)C)CCCCC1)C(C)(C)C)C2(C)C)C(=O)C(=O)NC1CC1` [compound 29, narlaprevir], the inhibition at 20 µM [2] is reported as greater than 60%, the IC50 (EV-A71 2A protease) is reported as greater than 20 µM and the IC50 (EV-A71 3C protease) is reported as greater than 20 µM.
Molecule `CC(C)[C@H](NC(=O)OCc1ccccc1)C(=O)N[C@H](C=O)Cc1ccccc1` [compound 57, calpain inhibitor III] (Cbz-Val-Phe-aldehyde) has an IC50 [2] greater than 20 µM.
For calpain inhibitor II [compound 61], the “binding stoichiometry by native MS” value (SARS-CoV-2 M^pro; [3]) was “one drug per protomer” and the EC50 ([1]; plaque assay) was greater than 20 µM.

— PMC7294525 (Cell Research, 2020)
